Measurements reported in patent US20050148570A1, “Novel substituted alkane compounds and uses thereof” (priority 2001, published 2005).
≈ marks a conversion by molar mass, not a printed value. Each block holds one compound with its values, some of them ahead of it.

Columns and labels:
S. aureus = experiment: MIC, broth dilution method; format: cell-based; conditions: for MIC: Staphylococcus aureus, read-out: Antibacterial Activity against S. aureus MIC
Experimental: (§1) Antibacterial activity can be determined by several standard methods well known by those skilled in the art, including disc diffusions methods, broth dilution minimal inhibitory concentration (MIC) methods, etc., including the detailed method outlined below. Cultures of bacteria are initially brought up from the freezer by streaking a loopful onto agar plates under the appropriate conditions. For instance stocks are streaked onto chocolate agar and then incubated for 18 hours at 35-37° C. in a 5% CO2 incubator. Five to 10 colonies are picked from the chocolate agar plate for subculture to Brain-Heart Infusion (BHI) broth or Mueller Hinton broth or BHI containing 4% serum and incubated under the appropriate conditions. The ability of the test compound to act as an antimicrobial is determined by the ability to inhibit bacterial, algae, or fungal growth in vitro. The optical density of the culture of organisms in the presence of an active compound is compared to the optical density of the same organism untreated. The activity of the compounds is described as either negative or the lowest concentration inhibiting growth.

M. catarrhalis = experiment: MIC, broth dilution method; format: cell-based; conditions: Moraxella catarrhalis, read-out: MIC Anti-Bacterial Activity
Experimental: as §1

S. epidermidis = experiment: MIC, broth dilution method; format: cell-based; conditions: Staphylococcus epidermidis, read-out: MIC Anti-Bacterial Activity
Experimental: as §1

S. pyogenes = experiment: MIC, broth dilution method; format: cell-based; conditions: Streptococcus pyogenes, read-out: MIC Anti-Bacterial Activity
Experimental: as §1

S. pneumoniae = experiment: MIC, broth dilution method; format: cell-based; conditions: Streptococcus pneumoniae, read-out: MIC Anti-Bacterial Activity
Experimental: as §1

H. influenzae = experiment: MIC, broth dilution method; format: cell-based; conditions: Haemophilus influenzae, read-out: MIC Anti-Bacterial Activity
Experimental: as §1

E. faecalis = experiment: MIC, broth dilution method; format: cell-based; conditions: Enterococcus faecalis, read-out: MIC Anti-Bacterial Activity
Experimental: as §1

M. smegimatis = experiment: MIC, broth dilution method; format: cell-based; conditions: read-out: MIC Anti-Bacterial Activity
Experimental: as §1

C. diphtheriae = experiment: MIC, broth dilution method; format: cell-based; conditions: Corynebacterium diphtheriae, read-out: MIC Anti-Bacterial Activity
Experimental: as §1

Compound: C[C@H]1[C@H](CC(C)(C)C)CC1(c1ccc(O)cc1)c1ccc(O)cc1 (relative stereo) [Example 13, Trans-1,1-di(4-hydroxyphenyl)-3-(2,2-dimethylpropyl)-2-methylcyclobutane]
MIC (S. aureus): 3.1 µg/mL (≈ 9.55 µM)

Compound: C[C@H]1[C@@H](CC(C)(C)C)CC1(c1ccc(O)cc1)c1ccc(O)cc1 (relative stereo) [Example 14, Cis-1,1-di(4-hydroxyphenyl)-3-(2,2-dimethylpropyl)-2-methylcyclobutane]
MIC (S. aureus): 0.8 µg/mL (≈ 2.47 µM) | melting point: 79 to 81 °C

Compound: Cc1cc(C2(c3cc(C)c(O)c(Cl)c3)C[C@@H](CC(C)(C)C)[C@@H]2C)cc(Cl)c1O (relative stereo) [Example 27, Trans-1,1-di(5-chloro-4-hydroxy-3-methylphenyl)-3-(2,2-dimethylpropyl)-2-methylcyclobutane]
MIC (S. aureus): 0.8 µg/mL (≈ 1.9 µM)

Compound: Cc1cc(C2(c3cc(C)c(O)c(Cl)c3)C[C@@H](CC(C)(C)C)[C@@H]2C)ccc1O (relative stereo) [Example 28, Trans-1-(4-hydroxy-3-methylphenyl)-1-(5-chloro-4-hydroxy-3-methylphenyl)-3-(2,2-dimethylpropyl)-2-methylcyclobutane]
MIC (S. aureus): 6.2 µg/mL (≈ 16 µM) | melting point: 138 to 140 °C

Compound: CCCC1CC(c2ccc(O)cc2)(c2ccc(O)cc2)C1 [Example 3, 1,1-Bis(4-hydroxyphenyl)-3-n-propyl-cyclobutane]
MIC (M. catarrhalis): 3 µg/mL (≈ 10.6 µM) | MIC (S. epidermidis): 6 µg/mL (≈ 21.2 µM) | MIC (S. pyogenes): 13 µg/mL (≈ 46 µM) | MIC (S. pneumoniae): 6 µg/mL (≈ 21.2 µM) | MIC (H. influenzae): 13 µg/mL (≈ 46 µM) | MIC (E. faecalis): 13 µg/mL (≈ 46 µM) | MIC (M. smegimatis): 6 µg/mL (≈ 21.2 µM) | MIC (C. diphtheriae): 6 µg/mL (≈ 21.2 µM) | MIC (S. aureus): 8 µg/mL (≈ 28.3 µM)

Compound: CCCCC1CC(c2ccc(O)cc2)(c2ccc(O)cc2)C1 [Example 6, 1,1-Bis(4-hydroxyphenyl)-3-n-butyl-cyclobutane]
MIC (M. catarrhalis): 3 µg/mL (≈ 10.1 µM) | MIC (S. epidermidis): 3 µg/mL (≈ 10.1 µM) | MIC (S. pyogenes): 13 µg/mL (≈ 43.9 µM) | MIC (S. pneumoniae): 6 µg/mL (≈ 20.2 µM) | MIC (H. influenzae): 13 µg/mL (≈ 43.9 µM) | MIC (E. faecalis): 3 µg/mL (≈ 10.1 µM) | MIC (M. smegimatis): 3 µg/mL (≈ 10.1 µM) | MIC (C. diphtheriae): 3 µg/mL (≈ 10.1 µM) | MIC (S. aureus): 4 µg/mL (≈ 13.5 µM)

Compound: CCCCC1CC1(c1ccc(O)c(C)c1)c1ccc(O)c(C)c1 (centres unmarked) [Example 10, 1,1-Bis(4-hydroxy-3-methylphenyl)-2-n-butylcyclopropane]
MIC (S. aureus): 3 µg/mL (≈ 9.66 µM)

Compound: CC(C)(C)CC1CC(c2ccc(O)cc2)(c2ccc(O)cc2)C1 [Example 11, 1,1-Di(4-hydroxyphenyl)-3-(2,2-dimethylpropyl)cyclobutane]
MIC (S. aureus): 12.5 µg/mL (≈ 40.3 µM) | melting point: 182 to 184 °C

Compound: Cc1cc(C2(c3ccc(O)c(C)c3)CC(C(C)(C)C)C2)ccc1O [Example 16, 1,1-Di-(4-hydroxy-3-methylphenyl)-3-(1,1-dimethylethyl)cyclobutane]
MIC (S. aureus): 0.8 µg/mL (≈ 2.47 µM)

Compound: CC(C)(C)C1CC(c2ccc(O)cc2)(c2ccc(O)cc2)C1 [Example 17, 1,1-Di-(4-hydroxyphenyl)-3-(1,1-dimethylethyl)cyclobutane]
MIC (S. aureus): 6.2 µg/mL (≈ 20.9 µM)

Compound: CCCCC1CC1(c1ccc(O)cc1)c1ccc(O)cc1 (centres unmarked) [Example 18, 1,1-Di(4-hydroxyphenyl)-2-n-butylcyclopropane]
MIC (S. aureus): 3.1 µg/mL (≈ 11 µM)

Compound: CCCCCC1CC1(c1ccc(O)cc1)c1ccc(O)cc1 (centres unmarked) [Example 19, 1,1-Di(4-hydroxyphenyl)-2-n-pentylcyclopropane]
MIC (S. aureus): 6.2 µg/mL (≈ 20.9 µM)

Compound: CCCCCC1CC1(c1ccc(O)c(Cl)c1)c1cc(Cl)c(O)c(Cl)c1 (centres unmarked) [Example 23, 1-(3-Chloro-4-hydroxyphenyl)-1-(4-hydroxy-3,5-dichlorophenyl)-2-pentylcyclopropane]
MIC (S. aureus): 1.6 µg/mL (≈ 4 µM)

Compound: CCCCC1CC(c2cc(C)c(O)c(C)c2)(c2cc(C)c(O)c(C)c2)C1 [Example 30, 1,1-Di(3,5-dimethyl-4-hydroxyphenyl)-3-n-butylcyclobutane]
MIC (S. aureus): 0.8 µg/mL (≈ 2.27 µM) | melting point: 138 to 141 °C

Compound: CCCCCC1CC(c2cc(C)c(O)c(C)c2)(c2cc(C)c(O)c(C)c2)C1 [Example 32, 1,1-Di(3,5-dimethyl-4-hydroxyphenyl)-3-n-pentylcyclobutane]
MIC (S. aureus): 1.6 µg/mL (≈ 4.37 µM) | melting point: 115 to 117 °C

Compound: CCCCCC1c2ccc(O)cc2-c2cc(O)ccc21 [Example 34, 9-Pentyl-9H-fluorene-3,6-diol]
MIC (S. aureus): 3.1 µg/mL (≈ 11.6 µM)

Compound: Trans-1,1-di-(4-hydroxy-3-methylphenyl)-3-(2,2-dimethylpropyl)-2-methylcyclobutane [Example 15]
Antibacterial Activity against S. aureus MIC (S. aureus; S. aureus): 0.4 µg/mL

Now from value to compound:

MIC (S. aureus): 0.8 µg/mL (≈ 2.03 µM) | melting point: 126 to 128 °C
Compound: C[C@H]1[C@H](CC(C)(C)C)CC1(c1ccc(O)c(Cl)c1)c1ccc(O)c(Cl)c1 (relative stereo) [Example 26, Trans-1,1-Di(3-chloro-4-hydroxyphenyl)-3-(2,2-dimethylpropyl)-2-methylcyclobutane]

MIC (M. catarrhalis): 2 µg/mL (≈ 6.44 µM) | MIC (S. epidermidis): 2 µg/mL (≈ 6.44 µM) | MIC (S. pyogenes): 6 µg/mL (≈ 19.3 µM) | MIC (S. pneumoniae): 6 µg/mL (≈ 19.3 µM) | MIC (H. influenzae): 1 µg/mL (≈ 3.22 µM) | MIC (E. faecalis): 3 µg/mL (≈ 9.66 µM) | MIC (M. smegimatis): 3 µg/mL (≈ 9.66 µM) | MIC (C. diphtheriae): 2 µg/mL (≈ 6.44 µM) | MIC (S. aureus): 1 µg/mL (≈ 3.22 µM) | melting point: 130 to 132 °C
Compound: CCCC1CC(c2ccc(O)c(C)c2)(c2ccc(O)c(C)c2)C1 [Example 1, 1,1-Bis(4-hydroxy-3-methylphenyl)-3-n-propyl-cyclobutane]

MIC (M. catarrhalis): 1 µg/mL (≈ 3.16 µM) | MIC (S. epidermidis): 2 µg/mL (≈ 6.31 µM) | MIC (S. pyogenes): 13 µg/mL (≈ 41 µM) | MIC (S. pneumoniae): 3 µg/mL (≈ 9.47 µM) | MIC (H. influenzae): 6 µg/mL (≈ 18.9 µM) | MIC (E. faecalis): 3 µg/mL (≈ 9.47 µM) | MIC (M. smegimatis): 2 µg/mL (≈ 6.31 µM) | MIC (C. diphtheriae): 2 µg/mL (≈ 6.31 µM) | MIC (S. aureus): 2 µg/mL (≈ 6.31 µM)
Compound: CCCC1CC(c2ccc(O)cc2)(c2ccc(O)c(Cl)c2)C1 (centres unmarked) [Example 4, 1-(4-Hydroxyphenyl)-1-(4-hydroxy-3-chloro-phenyl)-3-n-propyl-cyclobutane]

MIC (M. catarrhalis): 1 µg/mL (≈ 2.85 µM) | MIC (S. epidermidis): 1 µg/mL (≈ 2.85 µM) | MIC (S. pyogenes): 13 µg/mL (≈ 37 µM) | MIC (S. pneumoniae): 3 µg/mL (≈ 8.54 µM) | MIC (H. influenzae): 3 µg/mL (≈ 8.54 µM) | MIC (E. faecalis): 2 µg/mL (≈ 5.69 µM) | MIC (M. smegimatis): 1 µg/mL (≈ 2.85 µM) | MIC (C. diphtheriae): 1 µg/mL (≈ 2.85 µM) | MIC (S. aureus): 1 µg/mL (≈ 2.85 µM) | melting point: 103 to 105 °C
Compound: CCCC1CC(c2ccc(O)c(Cl)c2)(c2ccc(O)c(Cl)c2)C1 [Example 5, 1,1-Bis(4-hydroxy-3-chloro-phenyl)-3-n-propyl-cyclobutane]

MIC (M. catarrhalis): 1 µg/mL (≈ 3.02 µM) | MIC (S. epidermidis): 1 µg/mL (≈ 3.02 µM) | MIC (S. pyogenes): 6 µg/mL (≈ 18.1 µM) | MIC (S. pneumoniae): 3 µg/mL (≈ 9.07 µM) | MIC (H. influenzae): 6 µg/mL (≈ 18.1 µM) | MIC (E. faecalis): 2 µg/mL (≈ 6.04 µM) | MIC (M. smegimatis): 1 µg/mL (≈ 3.02 µM) | MIC (C. diphtheriae): 2 µg/mL (≈ 6.04 µM) | MIC (S. aureus): 1 µg/mL (≈ 3.02 µM)
Compound: CCCCC1CC(c2ccc(O)cc2)(c2ccc(O)c(Cl)c2)C1 (centres unmarked) [Example 7, 1-(4-Hydroxyphenyl)-1-(4-hydroxy-3-chlorophenyl)-3-n-butyl-cyclobutane]

MIC (S. aureus): 1.6 µg/mL (≈ 4.73 µM) | melting point: 175 to 176 °C
Compound: Cc1cc(C2(c3ccc(O)c(C)c3)CC(CC(C)(C)C)C2)ccc1O [Example 12, 1,1-Di(4-hydroxy-3-methylphenyl)-3-(2,2-dimethylpropyl)cyclobutane]

MIC (S. aureus): 1.6 µg/mL (≈ 4.55 µM)
Compound: CCCCC1CC1(c1ccc(O)c(Cl)c1)c1ccc(O)c(Cl)c1 (centres unmarked) [Example 20, 1,1-Di(3-chloro-4-hydroxyphenyl)-2-n-butylcyclopropane]

MIC (S. aureus): 3.1 µg/mL (≈ 8.04 µM)
Compound: CCCCC1CC1(c1ccc(O)c(Cl)c1)c1cc(Cl)c(O)c(Cl)c1 (centres unmarked) [Example 21, 1-(3-Chloro-4-hydroxyphenyl)-1-(4-hydroxy-3,5-dichlorophenyl)-2-n-butylcyclopropane]

MIC (S. aureus): 1.6 µg/mL (≈ 4.38 µM)
Compound: CCCCCC1CC1(c1ccc(O)c(Cl)c1)c1ccc(O)c(Cl)c1 (centres unmarked) [Example 22, 1,1-Di(3-chloro-4-hydroxyphenyl)-2-pentylcyclopropane]

MIC (S. aureus): 1.6 µg/mL (≈ 4.22 µM) | melting point: 131 to 134 °C
Compound: CC(C)(C)CC1CC(c2ccc(O)c(Cl)c2)(c2ccc(O)c(Cl)c2)C1 [Example 24, 1,1-Di-(3-chloro-4-hydroxyphenyl)-3-(2,2-dimethylpropyl)cyclobutane]

MIC (S. aureus): 0.8 µg/mL (≈ 2.19 µM) | melting point: 133 to 135 °C
Compound: CC(C)(C)C1CCC1(c1ccc(O)c(Cl)c1)c1ccc(O)c(Cl)c1 (centres unmarked) [Example 25, 1,1-Di-(3-chloro-4-hydroxyphenyl)-2-(1,1-dimethylethyl)cyclobutane]

MIC (S. aureus): 0.8 µg/mL (≈ 2.27 µM) | melting point: 135 to 138 °C
Compound: CCCCC1CC(c2ccc(O)c(CC)c2)(c2ccc(O)c(CC)c2)C1 [Example 29, 1,1-Di(3-ethyl-4-hydroxyphenyl)-3-n-butylcyclobutane]

MIC (S. aureus): 1.6 µg/mL (≈ 4.37 µM) | melting point: 109 to 111 °C
Compound: CCCCCC1CC(c2ccc(O)c(CC)c2)(c2ccc(O)c(CC)c2)C1 [Example 31, 1,1-Di(3-ethyl-4-hydroxyphenyl)-3-n-pentylcyclobutane]

MIC (S. aureus): 1.6 µg/mL (≈ 4.25 µM)
Compound: C=CCc1cc(C2(c3ccc(O)c(CC=C)c3)CC(CCCC)C2)ccc1O [Example 33, 1,1-Di(3-allyl-4-hydroxyphenyl)-3-n-butylcyclobutane]
